Molecular target: T1, AR (Homo sapiens, UniProt P10275)
T1 construct: endogenous in cells; host or cells: VCaP cells
T1 sequence (P10275 1-920): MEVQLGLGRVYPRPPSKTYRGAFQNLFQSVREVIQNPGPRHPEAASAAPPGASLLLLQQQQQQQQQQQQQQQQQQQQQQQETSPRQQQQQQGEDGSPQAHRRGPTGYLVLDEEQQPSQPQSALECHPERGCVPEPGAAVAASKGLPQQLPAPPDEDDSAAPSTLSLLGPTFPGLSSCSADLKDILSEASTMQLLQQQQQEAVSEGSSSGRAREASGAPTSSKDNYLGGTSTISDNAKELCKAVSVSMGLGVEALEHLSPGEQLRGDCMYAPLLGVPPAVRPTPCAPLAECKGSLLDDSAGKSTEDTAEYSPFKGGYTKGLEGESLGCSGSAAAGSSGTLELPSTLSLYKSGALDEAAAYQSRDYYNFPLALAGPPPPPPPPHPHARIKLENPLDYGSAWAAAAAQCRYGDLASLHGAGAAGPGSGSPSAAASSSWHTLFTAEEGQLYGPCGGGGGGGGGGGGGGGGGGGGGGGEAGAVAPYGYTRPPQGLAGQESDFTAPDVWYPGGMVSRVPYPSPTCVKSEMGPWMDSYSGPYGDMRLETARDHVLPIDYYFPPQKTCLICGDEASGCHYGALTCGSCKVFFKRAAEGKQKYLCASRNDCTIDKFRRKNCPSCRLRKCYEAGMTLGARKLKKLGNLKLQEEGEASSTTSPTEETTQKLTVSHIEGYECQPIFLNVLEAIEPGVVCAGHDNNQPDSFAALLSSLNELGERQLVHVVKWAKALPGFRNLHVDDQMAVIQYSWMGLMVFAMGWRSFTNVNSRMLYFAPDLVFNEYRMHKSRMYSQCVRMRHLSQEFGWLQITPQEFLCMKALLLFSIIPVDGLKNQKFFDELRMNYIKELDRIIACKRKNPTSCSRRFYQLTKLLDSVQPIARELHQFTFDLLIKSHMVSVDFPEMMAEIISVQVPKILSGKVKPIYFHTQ
Test: VCAP AR Degradation Assay
Assay type: cell-based
Conditions: VCaP cells, 24 h; for DC50: AR ELISA, concentration when AR level = 50% of DMSO control; for Ymin: lowest AR level normalized to DMSO control, given as numbers
In short: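 VCaP cells in DMEM with 8% FBS treated 24 h at 37° C with a 10-point 1:3 series (top 5 μM final; 0.1% DMSO control). Total AR measured in lysates by sandwich ELISA and normalized to DMSO; DC50/EC50 from four-parameter logistic fit, with the lowest normalized AR level reported as Y.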

C[C@@H]1C[C@H](OCCO[C@H]2CC[C@H](N3C(=S)N(c4ccc(C#N)c(C(F)(F)F)c4)C(=O)C3(C)C)CC2)C[C@H](C)N1CC(=O)Nc1ccc(C2CCC(=O)NC2=O)cc1 (stereo partly drawn) [Cmpd 42, 2-((2R,4r,6S)-4-(2-(((trans)-4-(3-(4-Cyano-3-(trifluoromethyl)phenyl)-5,5-dimethyl-4-oxo-2-thioxoimidazolidin-1-yl)cyclohexyl)oxy)ethoxy)-2,6-dimethylpiperidin-1-yl)-N-(4-(2,6-dioxopiperidin-3-yl)phenyl)acetamide]
DC50: 5 to 15 nM
Ymin: 19 % of DMSO control

CC1(C)C(=O)N(c2ccc(C#N)c(C(F)(F)F)c2)C(=S)N1[C@H]1CC[C@H](OCCC2CCN(CC(=O)Nc3ccc(C4CCC(=O)NC4=O)cc3)CC2(F)F)CC1 (stereo partly drawn) [Cmpd 43, 2-(4-(2-(((trans)-4-(3-(4-Cyano-3-(trifluoromethyl)phenyl)-5,5-dimethyl-4-oxo-2-thioxoimidazolidin-1-yl)cyclohexyl)oxy)ethyl)-3,3-difluoropiperidin-1-yl)-N-(4-(2,6-dioxopiperidin-3-yl)phenyl)acetamide]
DC50: ≤ 5 nM
Ymin: 18 % of DMSO control

CC1(C)C(=O)N(c2cnc(C#N)c(C(F)(F)F)c2)C(=S)N1[C@H]1CC[C@H](OCCC2CCN(CC(=O)Nc3ccc(C4CCC(=O)NC4=O)cc3)CC2(F)F)CC1 (stereo partly drawn) [Cmpd 44, 2-(4-(2-(((trans)-4-(3-(6-Cyano-5-(trifluoromethyl)pyridin-3-yl)-5,5-dimethyl-4-oxo-2-thioxoimidazolidin-1-yl)cyclohexyl)oxy)ethyl)-3,3-difluoropiperidin-1-yl)-N-(4-(2,6-dioxopiperidin-3-yl)phenyl)acetamide]
DC50: ≤ 5 nM
Ymin: 12 % of DMSO control
